In PubChem BioAssay AID2060622 (Molecular Pharmacology Branch, DTP, NCI, 2025):

System: 242566-281-R-J2-PDC complex spheroid viability
Assay: Anticancer human tumor 242566-281-R-J2-PDC patient-derived pancreatic carcinoma cell line growth inhibition [CLK]
Settings: for IC50: curve of first compound; for viability, T/C: stronger effect = lower value
In short: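 Multi-cell-type spheroids combined patient-derived tumor cells with HUVEC endothelial cells and human mesenchymal stem cells. Paired agents were dosed in half-log steps down from about clinical Cmax, or from 10 microM where Cmax was unknown.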

[1] = second compound 0.0316 µM, first compound 0.0316 µM
[2] = second compound 0.0316 µM, first compound 0.1 µM
[3] = second compound 0.0316 µM, first compound 0.316 µM
[4] = second compound 0.0316 µM, first compound 1 µM
[5] = second compound 0.0316 µM, first compound 3.16 µM
[6] = second compound 0.0316 µM, first compound 10 µM
[7] = second compound 0.1 µM, first compound 0.0316 µM
[8] = second compound 0.1 µM, first compound 0.1 µM
[9] = second compound 0.1 µM, first compound 0.316 µM
[10] = second compound 0.1 µM, first compound 1 µM
[11] = second compound 0.1 µM, first compound 3.16 µM
[12] = second compound 0.1 µM, first compound 10 µM
[13] = second compound 0.316 µM, first compound 0.0316 µM
[14] = second compound 0.316 µM, first compound 0.1 µM
[15] = second compound 0.316 µM, first compound 0.316 µM
[16] = second compound 0.316 µM, first compound 1 µM
[17] = second compound 0.316 µM, first compound 3.16 µM
[18] = second compound 0.316 µM, first compound 10 µM
[19] = second compound 1 µM, first compound 0.0316 µM
[20] = second compound 1 µM, first compound 0.1 µM
[21] = second compound 1 µM, first compound 0.316 µM
[22] = second compound 1 µM, first compound 1 µM
[23] = second compound 1 µM, first compound 3.16 µM
[24] = second compound 1 µM, first compound 10 µM
[25] = second compound 3.16 µM, first compound 0.0316 µM
[26] = second compound 3.16 µM, first compound 0.1 µM
[27] = second compound 3.16 µM, first compound 0.316 µM
[28] = second compound 3.16 µM, first compound 1 µM
[29] = second compound 3.16 µM, first compound 3.16 µM
[30] = second compound 3.16 µM, first compound 10 µM
[31] = second compound 10 µM, first compound 0.0316 µM
[32] = second compound 10 µM, first compound 0.1 µM
[33] = second compound 10 µM, first compound 0.316 µM
[34] = second compound 10 µM, first compound 1 µM
[35] = second compound 10 µM, first compound 3.16 µM
[36] = second compound 10 µM, first compound 10 µM
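Also: spheroids exposed to compounds for 7 days before readout.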
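For viability, T/C in this document: 100% = DMSO vehicle control wells.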

`C#Cc1c(F)ccc2cc(O)cc(-c3ncc4c(N5CC6CCC(C5)N6)nc(OCC56CCCN5CC(F)C6)nc4c3F)c12` (stereo not drawn) + CNC(=O)c1ccc(Nc2nc(OC3CCCC3)c3c(-c4ccc5nc(C)oc5c4)c[nH]c3n2)c(OC)c1 was tested, and the IC50 (second compound 0.0316 µM) was 4.27 µM, the IC50 (second compound 0.1 µM) was 1.43 µM and the IC50 (second compound 0.316 µM) was 0.434 µM. It also gave an IC50 (second compound 1 µM) of less than 0.0316 µM, an IC50 (second compound 3.16 µM) of less than 0.0316 µM and an IC50 (second compound 10 µM) of less than 0.0316 µM. It also gave a viability, T/C [1] of 106%, a viability, T/C [2] of 89.4% and a viability, T/C [3] of 68.1%. The viability, T/C [4] was 60.8%, the viability, T/C [5] was 52.1% and the viability, T/C [6] was 45.6%. For the same molecule, the viability, T/C [7] was 109%, the viability, T/C [8] was 92.9% and the viability, T/C [9] was 67.6%. For the same molecule, the viability, T/C [10] was 55.3%, the viability, T/C [11] was 42.2% and the viability, T/C [12] was 32.9%. The viability, T/C [13] was 81.7%, the viability, T/C [14] was 66.7% and the viability, T/C [15] was 52.2%. It also gave a viability, T/C [16] of 39.3%, a viability, T/C [17] of 36.5% and a viability, T/C [18] of 22.3%. For the same molecule, the viability, T/C [19] was 48.4%, the viability, T/C [20] was 29% and the viability, T/C [21] was 22.9%. The viability, T/C [22] was 16.5%, the viability, T/C [23] was 13.4% and the viability, T/C [24] was 15.5%. For the same molecule, the viability, T/C [25] was 20.3%, the viability, T/C [26] was 17.5% and the viability, T/C [27] was 15.9%. For the same molecule, the viability, T/C [28] was 11.8%, the viability, T/C [29] was 10.9% and the viability, T/C [30] was 7.39%. It also gave a viability, T/C [31] of 17.5%, a viability, T/C [32] of 14.5% and a viability, T/C [33] of 13.2%. It also gave a viability, T/C [34] of 10.8%, a viability, T/C [35] of 11.1% and a viability, T/C [36] of 6.78%.

In the case of `C=C(F)C(=O)N1CCN(c2nc(OCC3CCCN3C)nc3c2CCN(c2cccc4cccc(Cl)c24)C3)CC1CC#N` (stereo not drawn) + CNC(=O)c1ccc(Nc2nc(OC3CCCC3)c3c(-c4ccc5nc(C)oc5c4)c[nH]c3n2)c(OC)c1, the IC50 (second compound 0.0316 µM) is reported as 5.78 µM, the IC50 (second compound 0.1 µM) is reported as 5.43 µM and the IC50 (second compound 0.316 µM) is reported as 4.99 µM. The IC50 (second compound 1 µM) was 3.34 µM, the IC50 (second compound 3.16 µM) was 1.13 µM and the IC50 (second compound 10 µM) was 0.107 µM. It also gave a viability, T/C [1] of 95.6%, a viability, T/C [2] of 101% and a viability, T/C [3] of 108%. It also gave a viability, T/C [4] of 101%, a viability, T/C [5] of 119% and a viability, T/C [6] of 0.23%. It also gave a viability, T/C [7] of 108%, a viability, T/C [8] of 78.5% and a viability, T/C [9] of 83.4%. For the same molecule, the viability, T/C [10] was 105%, the viability, T/C [11] was 94.4% and the viability, T/C [12] was 0.19%. For the same molecule, the viability, T/C [13] was 82.2%, the viability, T/C [14] was 76.3% and the viability, T/C [15] was 69.7%. The viability, T/C [16] was 88.6%, the viability, T/C [17] was 95% and the viability, T/C [18] was 0.63%. It also gave a viability, T/C [19] of 73.3%, a viability, T/C [20] of 64.4% and a viability, T/C [21] of 65.5%. For the same molecule, the viability, T/C [22] was 65%, the viability, T/C [23] was 52.7% and the viability, T/C [24] was 0.17%. The viability, T/C [25] was 63.3%, the viability, T/C [26] was 51.1% and the viability, T/C [27] was 50.8%. It also gave a viability, T/C [28] of 53.6%, a viability, T/C [29] of 19.6% and a viability, T/C [30] of 0.18%. The viability, T/C [31] was 54.4%, the viability, T/C [32] was 45.2% and the viability, T/C [33] was 50%. For the same molecule, the viability, T/C [34] was 43.9%, the viability, T/C [35] was 16% and the viability, T/C [36] was 0.24%.

In the case of `C=CC(=O)N1CCN(c2nc(=O)n(-c3c(C)ccnc3C(C)C)c3nc(-c4c(O)cccc4F)c(F)cc23)C(C)C1` (stereo not drawn) + CNC(=O)c1ccc(Nc2nc(OC3CCCC3)c3c(-c4ccc5nc(C)oc5c4)c[nH]c3n2)c(OC)c1, the IC50 (second compound 0.0316 µM) is reported as greater than 10 µM, the IC50 (second compound 0.1 µM) is reported as greater than 10 µM and the IC50 (second compound 0.316 µM) is reported as greater than 10 µM. It also gave an IC50 (second compound 1 µM) greater than 10 µM, an IC50 (second compound 3.16 µM) greater than 10 µM and an IC50 (second compound 10 µM) greater than 10 µM. It also gave a viability, T/C [1] of 104%, a viability, T/C [2] of 94% and a viability, T/C [3] of 120%. For the same molecule, the viability, T/C [4] was 128%, the viability, T/C [5] was 89% and the viability, T/C [6] was 73.9%. It also gave a viability, T/C [7] of 101%, a viability, T/C [8] of 115% and a viability, T/C [9] of 87.7%. It also gave a viability, T/C [10] of 104%, a viability, T/C [11] of 88.1% and a viability, T/C [12] of 70.9%. It also gave a viability, T/C [13] of 95.7%, a viability, T/C [14] of 92% and a viability, T/C [15] of 74.3%. For the same molecule, the viability, T/C [16] was 87.1%, the viability, T/C [17] was 71.1% and the viability, T/C [18] was 67.3%. For the same molecule, the viability, T/C [19] was 79.3%, the viability, T/C [20] was 68.1% and the viability, T/C [21] was 72.5%. For the same molecule, the viability, T/C [22] was 69.6%, the viability, T/C [23] was 70.7% and the viability, T/C [24] was 57.2%. It also gave a viability, T/C [25] of 60.5%, a viability, T/C [26] of 52.6% and a viability, T/C [27] of 52.9%. The viability, T/C [28] was 56.4%, the viability, T/C [29] was 58.1% and the viability, T/C [30] was 54.8%. For the same molecule, the viability, T/C [31] was 54.5%, the viability, T/C [32] was 53.6% and the viability, T/C [33] was 58.8%. For the same molecule, the viability, T/C [34] was 53%, the viability, T/C [35] was 53.6% and the viability, T/C [36] was 51.8%.

Molecule `CC(CO)NC(=O)c1cc(-c2ccc(Cl)cc2)nn(-c2cnn(C)c2)c1=O` (stereo not drawn) + CNC(=O)c1ccc(Nc2nc(OC3CCCC3)c3c(-c4ccc5nc(C)oc5c4)c[nH]c3n2)c(OC)c1 has an IC50 (second compound 0.0316 µM) greater than 10 µM, an IC50 (second compound 0.1 µM) greater than 10 µM and an IC50 (second compound 0.316 µM) greater than 10 µM. It also gave an IC50 (second compound 1 µM) greater than 10 µM, an IC50 (second compound 3.16 µM) greater than 10 µM and an IC50 (second compound 10 µM) greater than 10 µM. The viability, T/C [1] was 112%, the viability, T/C [2] was 105% and the viability, T/C [3] was 103%. For the same molecule, the viability, T/C [4] was 124%, the viability, T/C [5] was 110% and the viability, T/C [6] was 104%. It also gave a viability, T/C [7] of 105%, a viability, T/C [8] of 107% and a viability, T/C [9] of 93%. The viability, T/C [10] was 102%, the viability, T/C [11] was 103% and the viability, T/C [12] was 96.3%. It also gave a viability, T/C [13] of 96.1%, a viability, T/C [14] of 90.7% and a viability, T/C [15] of 83.1%. For the same molecule, the viability, T/C [16] was 95.9%, the viability, T/C [17] was 101% and the viability, T/C [18] was 86%. It also gave a viability, T/C [19] of 76%, a viability, T/C [20] of 65% and a viability, T/C [21] of 75.6%. It also gave a viability, T/C [22] of 79.2%, a viability, T/C [23] of 86.2% and a viability, T/C [24] of 89.4%. It also gave a viability, T/C [25] of 60.1%, a viability, T/C [26] of 62.5% and a viability, T/C [27] of 59.1%. For the same molecule, the viability, T/C [28] was 58.9%, the viability, T/C [29] was 63% and the viability, T/C [30] was 69.2%. For the same molecule, the viability, T/C [31] was 55.6%, the viability, T/C [32] was 55.8% and the viability, T/C [33] was 54.1%. The viability, T/C [34] was 58.8%, the viability, T/C [35] was 62.7% and the viability, T/C [36] was 70.2%.
